The results in this text go back to ChEMBL document CHEMBL1201862, “PubChem BioAssay data set” (2004).

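Test compounds were applied to cells in 96-well plates for 48 hours at 5 doses. GI50 marks 50% less growth.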 The source made the active and inactive calls. Rule as the data show it: active = GI50 up to about 1.1 µM and inactive = higher.

Some test systems named below: A498; A549; COLO 205; DU-145; HOP-62; Hs-578T; IGROV-1; KM12; MCF7; MDA-MB-231; MDA-N; MOLT-4; NCI/ADR-RES; OVCAR-3; OVCAR-8; PC-3; SF-539; SK-MEL-2; SW-620; UACC-62.
Experiment in all cases: inhibition of tumour cell growth, NCI panel, 48 h

Consider `O=[N+]([O-])C(=C(Cl)Cl)C(Cl)=C(Cl)Cl`, for which the GI50 in the assay on A498 was 3.63 µM (inactive); with A549, 6.44 µM (inactive); in the assay on COLO 205, 0.0368 µM (active); in the assay with DU-145 it was 8.85 µM (inactive); in the assay on HOP-62, 8.22 µM (inactive); in the assay on Hs-578T, 0.485 µM (active). For the same compound, the GI50 with IGROV-1 is 0.422 µM (active); in the assay with KM12, 1.85 µM (inactive); in the assay with MCF7, 0.114 µM (active); in the assay with MDA-MB-231, 0.505 µM (active); in the assay with MDA-N, 0.206 µM (active); in the assay on MOLT-4 it was 0.0166 µM (active). The GI50 was 1.36 µM (inactive) with NCI/ADR-RES; 0.706 µM (active) in the assay on OVCAR-3; 0.619 µM (active) in the assay on OVCAR-8; 0.778 µM (active) in the assay on PC-3; 1.45 µM (inactive) with SF-539; 1.68 µM (inactive) in the assay with SK-MEL-2. Also, the figures for the GI50 in the assay on SW-620 and in the assay on UACC-62 were 0.0169 µM (active) and 0.433 µM (active), respectively.

`CC(=O)n1nc(-c2[nH]c(C)c(-c3nn(C(C)=O)c(=S)o3)c2C)oc1=S`: the GI50 in the assay with A498, with A549, in the assay with COLO 205, in the assay with DU-145, in the assay on HOP-62 and in the assay with Hs-578T was > 100 µM (inactive) in each case. Further, the GI50 is > 100 µM (inactive) in the assay with IGROV-1; > 100 µM (inactive) in the assay with KM12; > 100 µM (inactive) with MCF7; > 100 µM (inactive) with MDA-MB-231; > 100 µM (inactive) with MDA-N; 6.89 µM (inactive) with MOLT-4. In addition, the GI50 with NCI/ADR-RES was > 100 µM (inactive); in the assay on OVCAR-3, > 100 µM (inactive); in the assay with OVCAR-8, > 100 µM (inactive); in the assay with PC-3, > 100 µM (inactive); with SF-539, 81.7 µM (inactive); in the assay with SK-MEL-2, > 62.4 µM (inactive). In addition, the GI50 in the assay on SW-620 and with UACC-62 was > 100 µM (inactive) each time.

As to `C[C@@H]1CC[C@H]2C(C)(C)[C@H]3C[C@@]12CC[C@@]3(C)O` [CEDROL], the GI50 in the assay on A498 is > 100 µM (inactive); in the assay on A549, 42.7 µM (inactive); in the assay on COLO 205, > 100 µM (inactive); in the assay on DU-145, > 100 µM (inactive); in the assay on HOP-62, > 100 µM (inactive); in the assay on Hs-578T it was > 100 µM (inactive). In addition, the GI50 was > 100 µM (inactive) with IGROV-1; 48.1 µM (inactive) in the assay with KM12; > 100 µM (inactive) in the assay with MCF7; > 100 µM (inactive) in the assay on MDA-MB-231; > 100 µM (inactive) with MDA-N; 35.5 µM (inactive) with MOLT-4. Also, the GI50 in the assay with NCI/ADR-RES, in the assay with OVCAR-3, with OVCAR-8, with PC-3, with SF-539 and in the assay on SK-MEL-2 was > 100 µM (inactive) in each case. Besides, the GI50 in the assay with SW-620 and in the assay with UACC-62 was > 100 µM (inactive) throughout.

Take `CC(C)c1ccc(O)c(=O)c(O)c1.CC(C)c1ccc(O)c(=O)cc1.CC(C)c1cccc(=O)c(O)c1.CC(C)c1ccccc(=O)c1O`: the GI50 is 2.06 µM (inactive) in the assay with A498; 1.07 µM (active) in the assay with A549; 2.77 µM (inactive) in the assay with COLO 205; 1.42 µM (inactive) in the assay on DU-145; 1.24 µM (inactive) in the assay on HOP-62; 4.46 µM (inactive) in the assay on Hs-578T. Besides, the GI50 in the assay with IGROV-1 was 1.36 µM (inactive); with KM12 it was 2.87 µM (inactive); in the assay with MCF7, 0.935 µM (active); in the assay on MDA-MB-231 it was 1.79 µM (inactive); in the assay with MDA-N, 3.32 µM (inactive); in the assay on MOLT-4 it was 0.343 µM (active). Besides, the GI50 in the assay on NCI/ADR-RES is 0.42 µM (active); in the assay with OVCAR-3 it was 0.279 µM (active); in the assay with OVCAR-8, 0.604 µM (active); with PC-3 it was 0.416 µM (active); in the assay on SF-539 it was 0.598 µM (active); with SK-MEL-2, 0.204 µM (active). The GI50 in the assay on SW-620 is 0.697 µM (active); in the assay on UACC-62 it was 0.787 µM (active).
